Assay in all cases: cell-based
One experiment concerns the target hNav1.7 (Homo sapiens, UniProt Q15858). Format: cell-based. The conditions noted are these: Table 22; IonWorks Quattro, use; […]; read-out: IWQ Use Nav1.7.
The next experiment concerns the target hNav1.5 (Homo sapiens, UniProt Q14524). The conditions noted are these: Table 22; IonWorks Quattro, use; […]; read-out: IWQ Use Nav1.5. Background: The patch-clamp technique gives a direct electrical read-out from membranes.
A further experiment concerns the target hNav1.3 (Homo sapiens, UniProt Q9NY46). To be noted: Table 22; IonWorks Quattro, use; […]; read-out: IWQ Use Nav1.3.

Positions of bridges follow the written chain, without caps; N, C: chain ends. Non-standard residues stand in square brackets, D forms with d. Residues, ends and D or L forms follow the SMILES beside them. 2Pal = N[C@@H](Cc1ccccn1)C(=O)O

hNav1.3, sequence (Q9NY46 whole entry, looked up): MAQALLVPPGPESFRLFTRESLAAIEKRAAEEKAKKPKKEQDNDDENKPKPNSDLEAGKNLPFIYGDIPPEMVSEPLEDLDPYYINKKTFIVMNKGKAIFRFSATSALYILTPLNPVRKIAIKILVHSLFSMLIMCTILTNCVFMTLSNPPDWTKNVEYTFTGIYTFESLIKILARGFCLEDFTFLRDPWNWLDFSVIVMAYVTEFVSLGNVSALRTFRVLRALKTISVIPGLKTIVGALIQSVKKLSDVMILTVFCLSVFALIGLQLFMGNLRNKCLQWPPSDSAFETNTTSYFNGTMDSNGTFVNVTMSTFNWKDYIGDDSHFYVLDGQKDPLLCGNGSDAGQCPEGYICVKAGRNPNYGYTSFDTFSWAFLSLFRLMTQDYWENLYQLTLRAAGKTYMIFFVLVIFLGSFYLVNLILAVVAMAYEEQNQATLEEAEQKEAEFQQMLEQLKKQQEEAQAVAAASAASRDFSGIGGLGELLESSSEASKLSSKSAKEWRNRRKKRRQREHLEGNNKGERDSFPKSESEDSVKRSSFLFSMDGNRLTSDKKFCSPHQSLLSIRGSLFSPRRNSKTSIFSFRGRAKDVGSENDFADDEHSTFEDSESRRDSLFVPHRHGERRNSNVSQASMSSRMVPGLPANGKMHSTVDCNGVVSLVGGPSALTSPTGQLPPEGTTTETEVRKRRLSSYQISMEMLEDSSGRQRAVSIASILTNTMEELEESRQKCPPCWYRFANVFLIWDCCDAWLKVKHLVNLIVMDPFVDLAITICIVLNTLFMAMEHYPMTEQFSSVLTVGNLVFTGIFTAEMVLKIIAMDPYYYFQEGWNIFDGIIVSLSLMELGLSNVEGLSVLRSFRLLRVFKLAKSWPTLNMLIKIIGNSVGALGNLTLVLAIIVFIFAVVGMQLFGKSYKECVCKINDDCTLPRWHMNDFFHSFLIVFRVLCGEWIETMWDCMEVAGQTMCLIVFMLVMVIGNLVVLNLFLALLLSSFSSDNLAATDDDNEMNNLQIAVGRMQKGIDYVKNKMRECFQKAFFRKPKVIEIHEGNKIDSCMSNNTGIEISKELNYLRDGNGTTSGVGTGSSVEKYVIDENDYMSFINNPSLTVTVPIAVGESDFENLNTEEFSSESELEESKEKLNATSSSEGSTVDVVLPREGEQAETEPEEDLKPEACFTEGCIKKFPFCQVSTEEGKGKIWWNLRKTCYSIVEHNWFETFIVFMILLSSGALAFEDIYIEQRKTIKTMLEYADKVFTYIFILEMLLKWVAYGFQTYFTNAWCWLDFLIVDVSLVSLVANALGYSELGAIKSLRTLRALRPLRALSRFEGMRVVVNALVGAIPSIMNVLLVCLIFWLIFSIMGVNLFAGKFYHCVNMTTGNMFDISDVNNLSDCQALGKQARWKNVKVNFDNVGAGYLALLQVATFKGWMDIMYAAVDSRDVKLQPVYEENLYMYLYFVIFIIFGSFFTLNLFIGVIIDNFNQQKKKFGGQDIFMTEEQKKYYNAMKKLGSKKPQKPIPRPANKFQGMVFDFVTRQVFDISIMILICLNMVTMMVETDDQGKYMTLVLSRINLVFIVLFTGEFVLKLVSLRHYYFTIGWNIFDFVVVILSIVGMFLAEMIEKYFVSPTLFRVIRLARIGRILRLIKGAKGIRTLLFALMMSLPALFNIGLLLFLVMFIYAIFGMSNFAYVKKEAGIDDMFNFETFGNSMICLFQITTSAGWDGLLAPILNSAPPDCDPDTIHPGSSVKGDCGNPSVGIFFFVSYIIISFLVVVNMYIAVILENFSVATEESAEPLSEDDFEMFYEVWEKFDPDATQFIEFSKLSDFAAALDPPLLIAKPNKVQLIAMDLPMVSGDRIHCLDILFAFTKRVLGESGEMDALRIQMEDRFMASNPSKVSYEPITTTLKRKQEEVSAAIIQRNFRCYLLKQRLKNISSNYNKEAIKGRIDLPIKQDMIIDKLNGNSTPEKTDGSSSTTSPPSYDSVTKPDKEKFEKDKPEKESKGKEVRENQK
hNav1.5, sequence (Q14524 whole entry, looked up): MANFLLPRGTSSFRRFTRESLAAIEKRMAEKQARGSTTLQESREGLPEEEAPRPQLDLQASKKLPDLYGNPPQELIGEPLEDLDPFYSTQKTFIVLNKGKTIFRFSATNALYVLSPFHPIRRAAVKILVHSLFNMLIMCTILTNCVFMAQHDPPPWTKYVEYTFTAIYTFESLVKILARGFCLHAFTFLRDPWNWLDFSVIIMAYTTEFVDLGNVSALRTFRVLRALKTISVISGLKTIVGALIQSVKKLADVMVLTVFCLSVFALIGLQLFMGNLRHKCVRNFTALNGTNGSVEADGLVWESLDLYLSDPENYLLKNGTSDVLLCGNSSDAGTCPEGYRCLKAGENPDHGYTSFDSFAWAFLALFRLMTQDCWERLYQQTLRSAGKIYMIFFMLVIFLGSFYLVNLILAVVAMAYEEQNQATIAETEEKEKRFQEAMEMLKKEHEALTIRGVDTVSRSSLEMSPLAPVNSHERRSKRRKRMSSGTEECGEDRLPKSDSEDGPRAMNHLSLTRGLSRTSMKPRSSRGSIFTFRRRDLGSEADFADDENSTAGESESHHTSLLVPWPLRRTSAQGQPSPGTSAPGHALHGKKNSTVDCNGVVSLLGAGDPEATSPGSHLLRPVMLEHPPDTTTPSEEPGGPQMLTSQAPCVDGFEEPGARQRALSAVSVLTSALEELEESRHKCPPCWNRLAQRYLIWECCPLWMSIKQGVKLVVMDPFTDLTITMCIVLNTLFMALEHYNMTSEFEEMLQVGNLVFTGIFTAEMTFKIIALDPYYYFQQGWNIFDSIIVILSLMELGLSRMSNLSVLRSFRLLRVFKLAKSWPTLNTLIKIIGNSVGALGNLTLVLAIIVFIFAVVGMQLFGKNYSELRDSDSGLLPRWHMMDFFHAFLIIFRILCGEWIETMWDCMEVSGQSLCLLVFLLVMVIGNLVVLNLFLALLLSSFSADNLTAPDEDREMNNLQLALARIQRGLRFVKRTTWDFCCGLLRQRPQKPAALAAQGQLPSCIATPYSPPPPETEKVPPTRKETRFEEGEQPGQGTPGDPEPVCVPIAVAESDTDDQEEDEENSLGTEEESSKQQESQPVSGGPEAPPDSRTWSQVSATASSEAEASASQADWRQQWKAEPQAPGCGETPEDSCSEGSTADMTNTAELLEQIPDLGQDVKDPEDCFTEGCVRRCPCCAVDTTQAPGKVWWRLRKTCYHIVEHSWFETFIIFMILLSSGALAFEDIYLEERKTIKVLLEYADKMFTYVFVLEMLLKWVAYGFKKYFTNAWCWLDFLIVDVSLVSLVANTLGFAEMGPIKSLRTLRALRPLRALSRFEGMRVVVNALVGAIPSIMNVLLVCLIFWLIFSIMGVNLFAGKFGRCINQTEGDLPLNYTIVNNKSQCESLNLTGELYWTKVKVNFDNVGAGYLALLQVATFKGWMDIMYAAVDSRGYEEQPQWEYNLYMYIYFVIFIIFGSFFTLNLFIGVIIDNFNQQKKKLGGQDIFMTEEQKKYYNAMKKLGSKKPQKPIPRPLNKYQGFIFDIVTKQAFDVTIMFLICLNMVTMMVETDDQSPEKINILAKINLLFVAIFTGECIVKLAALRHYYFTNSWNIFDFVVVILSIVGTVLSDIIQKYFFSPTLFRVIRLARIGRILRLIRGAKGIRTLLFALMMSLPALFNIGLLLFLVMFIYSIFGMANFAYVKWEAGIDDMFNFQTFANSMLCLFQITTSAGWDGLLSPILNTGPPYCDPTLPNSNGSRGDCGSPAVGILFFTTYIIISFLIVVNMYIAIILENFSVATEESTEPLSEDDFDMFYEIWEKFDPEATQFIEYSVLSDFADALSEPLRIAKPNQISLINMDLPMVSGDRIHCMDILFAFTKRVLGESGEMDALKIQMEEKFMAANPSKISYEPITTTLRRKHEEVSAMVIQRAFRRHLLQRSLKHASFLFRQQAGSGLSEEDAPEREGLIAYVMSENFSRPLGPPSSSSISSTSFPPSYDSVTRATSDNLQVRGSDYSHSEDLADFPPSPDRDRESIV

Regarding `CC[C@H](C)[C@@H]1NC(=O)[C@@H]2CSSC[C@@H]3NC(=O)[C@H](C(C)C)NC(=O)[C@H](CC(C)C)NC(=O)[C@H](CC(N)=O)NC(=O)[C@@H]4CCCN4C(=O)[C@H](CCCNC(=N)N)NC(=O)[C@H](CSSC[C@H](NC(=O)[C@@H](N)CC(=O)O)C(=O)N[C@@H](CC(C)C)C(=O)NCC(=O)N[C@@H](Cc4ccccc4)C(=O)N[C@@H](CCSC)C(=O)N[C@@H](CCCNC(=N)N)C(=O)N[C@@H](CCCCN)C(=O)N2)NC(=O)[C@H](CSSC[C@@H](C(=O)N[C@@H](CCCCN)C(=O)N[C@@H](Cc2ccc(O)cc2)C(=O)N[C@H](C(=O)N[C@@H](Cc2ccccc2)C(N)=O)C(C)C)NC(=O)[C@H](Cc2c[nH]c4ccccc24)NC(=O)[C@H](CCCCN)NC(=O)[C@H](Cc2c[nH]cn2)NC(=O)[C@H](CC(N)=O)NC(=O)[C@H](CCCNC(=N)N)NC(=O)[C@H](CO)NC3=O)NC(=O)[C@H](CCCCN)NC(=O)[C@H](CC(=O)O)NC(=O)[C@H](CC(N)=O)NC(=O)[C@H](CC(=O)O)NC(=O)[C@@H]2CCCN2C1=O` [compound 342] (H-DCLGFMRKCIPDNDKCCRPNLVCSRNHKWCKYVF-NH2; disulfide 2-17, 9-23, 16-30), the IC50 was found to be 90 nM at hNav1.7, 6290 nM on hNav1.5 and 100 nM at hNav1.3.

Turning to `CC[C@H](C)[C@@H]1NC(=O)[C@@H]2CSSC[C@@H]3NC(=O)[C@H](C(C)C)NC(=O)[C@H](CC(C)C)NC(=O)[C@H](CC(N)=O)NC(=O)[C@@H]4CCCN4C(=O)[C@H](CCCNC(=N)N)NC(=O)[C@H](CSSC[C@H](NC(=O)[C@@H](N)CC(=O)O)C(=O)N[C@@H](CC(C)C)C(=O)NCC(=O)N[C@@H](Cc4ccccc4)C(=O)N[C@@H](CCSC)C(=O)N[C@@H](CCCNC(=N)N)C(=O)N[C@@H](CCCCN)C(=O)N2)NC(=O)[C@H](CSSC[C@@H](C(=O)N[C@@H](CCCCN)C(=O)N[C@@H](Cc2ccc(O)cc2)C(=O)N[C@H](C(=O)N[C@@H](Cc2ccccc2)C(N)=O)C(C)C)NC(=O)[C@H](Cc2c[nH]c4ccccc24)NC(=O)[C@H](CCCCN)NC(=O)[C@H](Cc2c[nH]cn2)NC(=O)CNC(=O)[C@H](CCCNC(=N)N)NC(=O)[C@H](CO)NC3=O)NC(=O)[C@H](CCCCN)NC(=O)[C@H](CC(=O)O)NC(=O)[C@H](CC(N)=O)NC(=O)[C@H](CC(=O)O)NC(=O)[C@@H]2CCCN2C1=O` [compound 343] (H-DCLGFMRKCIPDNDKCCRPNLVCSRGHKWCKYVF-NH2; disulfide 2-17, 9-23, 16-30), the results for the IC50 on hNav1.7, on hNav1.5 and on hNav1.3 were 100 nM, 4070 nM and 90 nM, respectively.

Take `CC[C@H](C)[C@@H]1NC(=O)[C@@H]2CSSC[C@@H]3NC(=O)[C@H](C(C)C)NC(=O)[C@H](CC(C)C)NC(=O)[C@H](CC(N)=O)NC(=O)[C@@H]4CCCN4C(=O)[C@H](CCCNC(=N)N)NC(=O)[C@H](CSSC[C@H](NC(=O)[C@@H](N)CC(=O)O)C(=O)N[C@@H](CC(C)C)C(=O)NCC(=O)N[C@@H](Cc4ccccc4)C(=O)N[C@@H](CCSC)C(=O)N[C@@H](CCCNC(=N)N)C(=O)N[C@@H](CCCCN)C(=O)N2)NC(=O)[C@H](CSSC[C@@H](C(=O)N[C@@H](CCCCN)C(=O)N[C@@H](Cc2ccc(O)cc2)C(=O)N[C@H](C(=O)N[C@@H](Cc2ccccc2)C(N)=O)C(C)C)NC(=O)[C@H](Cc2c[nH]c4ccccc24)NC(=O)[C@H](CCCCN)NC(=O)[C@H](Cc2c[nH]cn2)NC(=O)[C@H](C(C)C)NC(=O)[C@H](CCCNC(=N)N)NC(=O)[C@H](CO)NC3=O)NC(=O)[C@H](CCCCN)NC(=O)[C@H](CC(=O)O)NC(=O)[C@H](CC(N)=O)NC(=O)[C@H](CC(=O)O)NC(=O)[C@@H]2CCCN2C1=O` [compound 344] (H-DCLGFMRKCIPDNDKCCRPNLVCSRVHKWCKYVF-NH2; disulfide 2-17, 9-23, 16-30): the IC50 at hNav1.7 came out at 60 nM; on hNav1.5 it was 8930 nM; on hNav1.3 it was 40 nM.

As for `CC[C@H](C)[C@@H]1NC(=O)[C@@H]2CSSC[C@@H]3NC(=O)[C@H](C(C)C)NC(=O)[C@H](CC(C)C)NC(=O)[C@H](CC(N)=O)NC(=O)[C@@H]4CCCN4C(=O)[C@H](CCCNC(=N)N)NC(=O)[C@H](CSSC[C@H](NC(=O)[C@@H](N)CC(=O)O)C(=O)N[C@@H](CC(C)C)C(=O)NCC(=O)N[C@@H](Cc4ccccc4)C(=O)N[C@@H](CCSC)C(=O)N[C@@H](CCCNC(=N)N)C(=O)N[C@@H](CCCCN)C(=O)N2)NC(=O)[C@H](CSSC[C@@H](C(=O)N[C@@H](CCCCN)C(=O)N[C@@H](Cc2ccc(O)cc2)C(=O)N[C@H](C(=O)N[C@@H](Cc2ccccc2)C(N)=O)C(C)C)NC(=O)[C@H](Cc2c[nH]c4ccccc24)NC(=O)[C@H](CCCCN)NC(=O)[C@H](Cc2c[nH]cn2)NC(=O)[C@@H]2CCCN2C(=O)[C@H](CCCNC(=N)N)NC(=O)[C@H](CO)NC3=O)NC(=O)[C@H](CCCCN)NC(=O)[C@H](CC(=O)O)NC(=O)[C@H](CC(N)=O)NC(=O)[C@H](CC(=O)O)NC(=O)[C@@H]2CCCN2C1=O` [compound 345] (H-DCLGFMRKCIPDNDKCCRPNLVCSRPHKWCKYVF-NH2; disulfide 2-17, 9-23, 16-30), the IC50 is 180 nM at hNav1.7, 6650 nM at hNav1.5 and 160 nM on hNav1.3.

Take `CC[C@H](C)[C@@H]1NC(=O)[C@@H]2CSSC[C@@H]3NC(=O)[C@H](C(C)C)NC(=O)[C@H](CC(C)C)NC(=O)[C@H](CC(N)=O)NC(=O)[C@@H]4CCCN4C(=O)[C@H](CCCNC(=N)N)NC(=O)[C@H](CSSC[C@H](NC(=O)[C@@H](N)CC(=O)O)C(=O)N[C@@H](CC(C)C)C(=O)NCC(=O)N[C@@H](Cc4ccccc4)C(=O)N[C@@H](CCSC)C(=O)N[C@@H](CCCNC(=N)N)C(=O)N[C@@H](CCCCN)C(=O)N2)NC(=O)[C@H](CSSC[C@@H](C(=O)N[C@@H](CCCCN)C(=O)N[C@@H](Cc2ccc(O)cc2)C(=O)N[C@H](C(=O)N[C@@H](Cc2ccccc2)C(N)=O)C(C)C)NC(=O)[C@H](Cc2c[nH]c4ccccc24)NC(=O)[C@H](CCCCN)NC(=O)[C@H](Cc2c[nH]cn2)NC(=O)[C@H](CCSC)NC(=O)[C@H](CCCNC(=N)N)NC(=O)[C@H](CO)NC3=O)NC(=O)[C@H](CCCCN)NC(=O)[C@H](CC(=O)O)NC(=O)[C@H](CC(N)=O)NC(=O)[C@H](CC(=O)O)NC(=O)[C@@H]2CCCN2C1=O` [compound 346] (H-DCLGFMRKCIPDNDKCCRPNLVCSRMHKWCKYVF-NH2; disulfide 2-17, 9-23, 16-30): the results for the IC50 at hNav1.7, at hNav1.5 and on hNav1.3 were 40 nM, 4240 nM and 20 nM, respectively.

As for `CC[C@H](C)[C@@H]1NC(=O)[C@@H]2CSSC[C@@H]3NC(=O)[C@H](C(C)C)NC(=O)[C@H](CC(C)C)NC(=O)[C@H](CC(N)=O)NC(=O)[C@@H]4CCCN4C(=O)[C@H](CCCNC(=N)N)NC(=O)[C@H](CSSC[C@H](NC(=O)[C@@H](N)CC(=O)O)C(=O)N[C@@H](CC(C)C)C(=O)NCC(=O)N[C@@H](Cc4ccccc4)C(=O)N[C@@H](CCSC)C(=O)N[C@@H](CCCNC(=N)N)C(=O)N[C@@H](CCCCN)C(=O)N2)NC(=O)[C@H](CSSC[C@@H](C(=O)N[C@@H](CCCCN)C(=O)N[C@@H](Cc2ccc(O)cc2)C(=O)N[C@H](C(=O)N[C@@H](Cc2ccccc2)C(N)=O)C(C)C)NC(=O)[C@H](Cc2c[nH]c4ccccc24)NC(=O)[C@H](CCCCN)NC(=O)[C@H](Cc2c[nH]cn2)NC(=O)[C@H](CC(=O)O)NC(=O)[C@H](CCCNC(=N)N)NC(=O)[C@H](CO)NC3=O)NC(=O)[C@H](CCCCN)NC(=O)[C@H](CC(=O)O)NC(=O)[C@H](CC(N)=O)NC(=O)[C@H](CC(=O)O)NC(=O)[C@@H]2CCCN2C1=O` [compound 347] (H-DCLGFMRKCIPDNDKCCRPNLVCSRDHKWCKYVF-NH2; disulfide 2-17, 9-23, 16-30), the IC50 on hNav1.7 turned out to be 960 nM; at hNav1.5, 14100 nM; at hNav1.3, 640 nM.

With `CC[C@H](C)[C@@H]1NC(=O)[C@H](CCCNC(=N)N)NC(=O)[C@H](CO)NC(=O)[C@@H]2CSSC[C@@H]3NC(=O)[C@H](CCCCN)NC(=O)[C@H](CCCNC(=N)N)NC(=O)[C@H](CCSC)NC(=O)[C@H](Cc4ccccc4)NC(=O)CNC(=O)[C@H](CC(C)C)NC(=O)[C@@H](NC(=O)[C@@H](N)CC(=O)O)CSSC[C@H](NC(=O)[C@H](CSSC[C@@H](C(=O)N[C@@H](CCCCN)C(=O)N[C@@H](Cc4ccc(O)cc4)C(=O)N[C@H](C(=O)N[C@@H](Cc4ccccc4)C(N)=O)C(C)C)NC(=O)[C@H](Cc4c[nH]c5ccccc45)NC(=O)[C@H](CCCCN)NC(=O)[C@H](Cc4c[nH]cn4)NC1=O)NC(=O)[C@H](CCCCN)NC(=O)[C@H](CC(=O)O)NC(=O)[C@H](CC(N)=O)NC(=O)[C@H](CC(=O)O)NC(=O)[C@@H]1CCCN1C(=O)[C@H]([C@@H](C)CC)NC3=O)C(=O)N[C@@H](CCCNC(=N)N)C(=O)N1CCC[C@H]1C(=O)N[C@@H](CC(N)=O)C(=O)N[C@@H](CC(C)C)C(=O)N[C@@H](C(C)C)C(=O)N2` [compound 348] (H-DCLGFMRKCIPDNDKCCRPNLVCSRIHKWCKYVF-NH2; disulfide 2-17, 9-23, 16-30), the IC50 at hNav1.7 stood at 50 nM; on hNav1.5, 8150 nM; on hNav1.3 it was 30 nM.

As to `CC[C@H](C)[C@@H]1NC(=O)[C@@H]2CSSC[C@@H]3NC(=O)[C@H](C(C)C)NC(=O)[C@H](CC(C)C)NC(=O)[C@H](CC(N)=O)NC(=O)[C@@H]4CCCN4C(=O)[C@H](CCCNC(=N)N)NC(=O)[C@H](CSSC[C@H](NC(=O)[C@@H](N)CC(=O)O)C(=O)N[C@@H](CC(C)C)C(=O)NCC(=O)N[C@@H](Cc4ccccc4)C(=O)N[C@@H](CCSC)C(=O)N[C@@H](CCCNC(=N)N)C(=O)N[C@@H](CCCCN)C(=O)N2)NC(=O)[C@H](CSSC[C@@H](C(=O)N[C@@H](CCCCN)C(=O)N[C@@H](Cc2ccc(O)cc2)C(=O)N[C@H](C(=O)N[C@@H](Cc2ccccc2)C(N)=O)C(C)C)NC(=O)[C@H](Cc2c[nH]c4ccccc24)NC(=O)[C@H](CCCCN)NC(=O)[C@H](Cc2c[nH]cn2)NC(=O)[C@H](Cc2ccccn2)NC(=O)[C@H](CCCNC(=N)N)NC(=O)[C@H](CO)NC3=O)NC(=O)[C@H](CCCCN)NC(=O)[C@H](CC(=O)O)NC(=O)[C@H](CC(N)=O)NC(=O)[C@H](CC(=O)O)NC(=O)[C@@H]2CCCN2C1=O` [compound 349] (H-DCLGFMRKCIPDNDKCCRPNLVCSR[2Pal]HKWCKYVF-NH2; disulfide 2-17, 9-23, 16-30), the IC50 was 260 nM at hNav1.7, 10600 nM at hNav1.5 and 60 nM at hNav1.3.

Source of the values: US9340590B2 (priority 2011, dated 2016).
